Article PMC7481290, “Halogenation as a tool to tune antimicrobial activity of peptoids” (Scientific Reports, 2020)
≈ marks a conversion by molar mass, not a printed value. Non-standard residues stand in square brackets, D forms with d. Residues, ends and D or L forms follow the SMILES beside them. N(4-Br-benzyl)Gly = O=C(O)CNCc1ccc(Br)cc1; Nspe(4-Br) = C[C@H](NCC(=O)O)c1ccc(Br)cc1; N(4-F-Bzl)Gly = O=C(O)CNCc1ccc(F)cc1; Nspe = C[C@H](NCC(=O)O)c1ccccc1; Nphe = O=C(O)CNCc1ccccc1; Nlys = NCCCCNCC(=O)O

Key:
S. aureus ATCC 25923 = assay type: cell-based, Staphylococcus aureus; settings: ATCC 25923, 18 h
Experimental: (§1) Bacterial growth inhibition was determined by using broth microdilution according to the Clinical Laboratory Standards Institute[43]. The antibacterial activity of peptoids was tested against S. aureus ATCC 25923, ATCC29213, and methicillin resistant S. aureus USA 300, methicillin resistant S. epidermidis ATCC 51625, a biofilm producing methicillin resistant S. epidermidis ET-024[44], P. aeruginosa Pa01 (H103), and E. coli ATCC 25922. Bacteria, grown on agar plates for 18 h at 37 °C, were diluted to ∼1 × 10^8 CFU/mL in Mueller‐Hinton Broth II (MHB II). Twofold serial dilutions of peptoids in MHB II were inoculated with bacteria to achieve a final concentration of 5 × 10^5 CFU/mL in polypropylene 96 U‐well microtiter plates (Corning 3,897; ThermoFisher Scientific, Roskilde), followed by incubation at 37 °C in ambient air for 18 h. The MIC values were determined as the lowest concentration showing no visible bacterial growth. Experiments were performed twice (in technical triplicates) on 2 different days.

S. aureus ATCC 29213 = assay type: cell-based, Staphylococcus aureus; settings: ATCC 29213, 18 h
Experimental: as §1

[1] = tested on: Methicillin-resistant S. aureus USA 300; assay type: cell-based, Staphylococcus aureus; settings: USA 300, 18 h
Experimental: as §1

[2] = tested on: Methicillin-resistant S. epidermidis ET-024; assay type: cell-based, Staphylococcus epidermidis; settings: Methicillin-resistant ET-024, 18 h
Experimental: as §1

[3] = tested on: Methicillin-resistant S. epidermidis ATCC 51625; assay type: cell-based, Staphylococcus epidermidis; settings: ATCC 51625, 18 h
Experimental: as §1

E. coli ATCC 25922 = assay type: cell-based, Escherichia coli; settings: ATCC 25922, 18 h
Experimental: as §1

[4] = tested on: P. aeruginosa PA01 (H103); assay type: cell-based, Pseudomonas aeruginosa; settings: H103, 18 h
Experimental: as §1

| SMILES | Minimal inhibitory concentration SA^a (S. aureus ATCC 25923) [µg/mL] | Minimal inhibitory concentration SA^b (S. aureus ATCC 29213) [µg/mL] | Minimal inhibitory concentration MRSA^c [1] [µg/mL] | Minimal inhibitory concentration MRSE^d [2] [µg/mL] | Minimal inhibitory concentration MRSE^e [3] [µg/mL] | Minimal inhibitory concentration EC^f (E. coli ATCC 25922) [µg/mL] | Minimal inhibitory concentration PA^g [4] [µg/mL] | MIC SA^a (S. aureus ATCC 25923) [µg/mL] | MIC MRSA^b [1] [µg/mL] | MIC MRSE^c [2] [µg/mL] | MIC MRSE^d [3] [µg/mL] | MIC EC^e (E. coli ATCC 25922) | MIC PA^f [4] [µg/mL] |
| --- | --- | --- | --- | --- | --- | --- | --- | --- | --- | --- | --- | --- | --- |
| NCCCCNCC(=O)N(CC(=O)N(CCCCN)CC(=O)N(CC(=O)N(CCCCN)CC(=O)N(CC(N)=O)Cc1ccc(Br)cc1)Cc1ccc(Br)cc1)Cc1ccc(Br)cc1 [Compound 4] (H-[Nlys][N(4-Br-benzyl)Gly][Nlys][N(4-Br-benzyl)Gly][Nlys][N(4-Br-benzyl)Gly]-NH2) | 16 (≈ 14.8 µM) | 16 (≈ 14.8 µM) | 16 (≈ 14.8 µM) | 4 (≈ 3.7 µM) | 4 (≈ 3.7 µM) | 64 (≈ 59.3 µM) | > 512 |  |  |  |  |  |  |
| NCCCCNCC(=O)N(CC(=O)N(CCCCN)CC(=O)N(CC(=O)N(CCCCN)CC(=O)N(CC(N)=O)Cc1ccc(F)cc1)Cc1ccc(F)cc1)Cc1ccc(F)cc1 [Compound 2] (H-[Nlys][N(4-F-Bzl)Gly][Nlys][N(4-F-Bzl)Gly][Nlys][N(4-F-Bzl)Gly]-NH2) | > 512 | > 512 | 512 (≈ 571 µM) | 128 (≈ 143 µM) | 512 (≈ 571 µM) | 512 (≈ 571 µM) | > 512 |  |  |  |  |  |  |
| NCCCCNCC(=O)N(CC(=O)N(CCCCN)CC(=O)N(CC(=O)N(CCCCN)CC(=O)N(CC(=O)N(CCCCN)CC(=O)N(CC(=O)N(CCCCN)CC(=O)N(CC(=O)N(CCCCN)CC(=O)N(CC(N)=O)Cc1ccc(F)cc1)Cc1ccc(F)cc1)Cc1ccc(F)cc1)Cc1ccc(F)cc1)Cc1ccc(F)cc1)Cc1ccc(F)cc1 [Compound 29] (H-[Nlys][N(4-F-Bzl)Gly][Nlys][N(4-F-Bzl)Gly][Nlys][N(4-F-Bzl)Gly][Nlys][N(4-F-Bzl)Gly][Nlys][N(4-F-Bzl)Gly][Nlys][N(4-F-Bzl)Gly]-NH2) | 32 (≈ 18 µM) | 32 (≈ 18 µM) | 16 (≈ 9 µM) | 4 to 8 | 4 (≈ 2.25 µM) | 256 (≈ 144 µM) | 64 (≈ 36 µM) |  |  |  |  |  |  |
| NCCCCNCC(=O)N(CC(=O)N(CCCCN)CC(=O)N(CC(=O)N(CCCCN)CC(=O)N(CC(N)=O)Cc1ccc(Br)cc1)Cc1ccccc1)Cc1ccc(Br)cc1 [Compound 8] (H-[Nlys][N(4-Br-benzyl)Gly][Nlys][Nphe][Nlys][N(4-Br-benzyl)Gly]-NH2) | 128 (≈ 128 µM) | 64 (≈ 63.9 µM) | 64 (≈ 63.9 µM) | 32 (≈ 32 µM) | 16 (≈ 16 µM) | 256 (≈ 256 µM) | 256 (≈ 256 µM) |  |  |  |  |  |  |
| NCCCCNCC(=O)N(CC(=O)N(CCCCN)CC(=O)N(CC(=O)N(CCCCN)CC(=O)N(CC(=O)N(CCCCN)CC(=O)N(CC(N)=O)Cc1ccc(Br)cc1)Cc1ccccc1)Cc1ccc(Br)cc1)Cc1ccccc1 [Compound 17] (H-[Nlys][Nphe][Nlys][N(4-Br-benzyl)Gly][Nlys][Nphe][Nlys][N(4-Br-benzyl)Gly]-NH2) | 16 (≈ 12.5 µM) | 32 (≈ 25.1 µM) | 32 (≈ 25.1 µM) | 4 (≈ 3.13 µM) | 4 (≈ 3.13 µM) | 256 (≈ 201 µM) | 512 (≈ 401 µM) |  |  |  |  |  |  |
| C[C@@H](c1ccc(Br)cc1)N(CC(N)=O)C(=O)CN(C(=O)CN(CCCCN)C(=O)CN(C(=O)CN(C(=O)CNCCCCN)[C@@H](C)c1ccccc1)[C@@H](C)c1ccccc1)[C@@H](C)c1ccccc1 [Compound 49] (H-[Nlys][Nspe][Nspe][Nlys][Nspe][Nspe(4-Br)]-NH2) |  |  |  |  |  |  |  | 64 (≈ 64.2 µM) | 32 (≈ 32.1 µM) | 16 (≈ 16 µM) | 8 (≈ 8.02 µM) | > 64 µg/mL | 64 (≈ 64.2 µM) |
| C[C@@H](c1ccccc1)N(CC(N)=O)C(=O)CN(C(=O)CN(CCCCN)C(=O)CN(C(=O)CN(C(=O)CNCCCCN)[C@@H](C)c1ccccc1)[C@@H](C)c1ccccc1)[C@@H](C)c1ccccc1 [Pep1-6mer] (H-[Nlys][Nspe][Nspe][Nlys][Nspe][Nspe]-NH2) |  |  |  |  |  |  |  | 256 (≈ 279 µM) | 256 (≈ 279 µM) | 64 (≈ 69.7 µM) | 64 (≈ 69.7 µM) | 1,024 μg/mL | 256 (≈ 279 µM) |
